Test results as given in publication PMC8151276, “An Integrated Approach toward NanoBRET Tracers for Analysis of GPCR Ligand Engagement” (Molecules, 2021).

Tests used:
Type in all cases: binding
ADRA2B = biological target: T1, ADRA2B (Homo sapiens, UniProt P18089); assay: NanoBRET screen HiBiT-ADRA2B in HEK293
T1 construct: purchased Promega (in-house HiBiT-GPCR construct library, NanoBRET)
T1 sequence (P18089 1-450): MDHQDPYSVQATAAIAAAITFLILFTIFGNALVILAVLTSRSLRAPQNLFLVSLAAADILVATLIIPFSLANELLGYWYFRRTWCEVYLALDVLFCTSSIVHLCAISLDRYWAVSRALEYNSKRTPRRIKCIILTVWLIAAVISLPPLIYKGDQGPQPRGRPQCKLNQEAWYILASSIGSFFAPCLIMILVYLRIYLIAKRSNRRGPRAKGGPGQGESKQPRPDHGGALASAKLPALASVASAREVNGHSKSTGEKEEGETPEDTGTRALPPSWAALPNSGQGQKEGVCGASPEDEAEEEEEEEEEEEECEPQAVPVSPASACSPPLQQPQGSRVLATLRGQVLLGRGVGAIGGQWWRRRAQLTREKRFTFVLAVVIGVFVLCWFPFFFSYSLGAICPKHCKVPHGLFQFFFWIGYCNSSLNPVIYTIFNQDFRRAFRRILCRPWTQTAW

DRD1 = biological target: T2, DRD1 (Homo sapiens, UniProt P21728); assay: NanoBRET screen HiBiT-DRD1 in HEK293
T2 construct: purchased Promega (in-house HiBiT-GPCR construct library, NanoBRET)
Experimental: (§1) Each tracer candidate was screened across the entire library of HiBiT-GPCR constructs using NanoBRET as the detection modality. As depicted in Figure 4A, the specificity of interactions was evaluated through decrease in BRET due to competitive displacement of a bound tracer by excess parental compound. Each tracer was analyzed for binding to each HiBiT-GPCR fusion in the absence and in the presence of competing parental compound. Briefly, HEK293 cells were transfected with HiBiT-GPCR constructs diluted into promoterless DNA to reduce expression and maximize translocation to the cell surface. Each tracer candidate was then screened at concentrations of 1 μM and 0.1 μM across cells expressing these fusions. Cells were treated for 1.5 h with tracer either alone or in the presence of 20 μM competing parental compound (i.e., control). BRET was measured upon addition of purified LgBiT and subsequent complementation with HiBiT genetically fused to a GPCR. The specificity of interactions was assessed through a decrease in BRET signal due to competitive displacement of the bound tracer. To further gauge the robustness of these interactions, the fold response over the control (i.e., BRETtracer/BRETcontrol) was calculated. We chose a 1.5-fold response, which translates to ≥7-fold signal over noise as the minimal threshold required to score an interaction as positive.
(§2) HiBiT-GPCR DNA constructs were diluted in 10 mM Tris pH 8 to a final concentration of 0.01 μg/μL, arrayed in 96-well plates and stored at −20 °C. For transfection, HEK293 cells were suspended in Opti-MEM (without phenol red) supplemented with 2% fetal bovine serum (Seradigm) and 100 units/mL penicillin–streptomycin (Gibco) at a final concentration of 220,000 cells/mL and dispensed into white 96-well plates at 90 μL/well. Subsequent transfections and screens were carried using an Agilent Bravo Automated Liquid Handling Platform. First, the 96-well HiBiT DNA arrays were diluted 25-fold in Opti-MEM (without serum or phenol red) to a final concentration of 0.0004 μg/μL and 20 μL of the diluted DNAs were transferred into new 96-well plates. Next, promoterless carrier DNA (1 μg/μL) was diluted 25-fold (0.04 μg/μL) and then dispensed into the diluted arrays at 20 μL/well. Following brief mixing, Viafect transfection reagent (Promega) diluted 16-fold into Opti-MEM was dispensed into the plates at 40 μL/well. After mixing by pipetting, plates were incubated for 10 min on the pipetting station deck. The DNA-transfection reagent complexes were then added to plates containing cells. To facilitate the screen, 10 μL of DNA-transfection reagent complexes were added in duplicates to the top 4 and bottom 4 rows, resulting in two identical 48-well arrays per plate. Plates with transfected cells were incubated for 18–20 h at 37 °C/5% CO2. A screen of each tracer across the entire library using two different concentrations requires duplicate plates of transfected cells. Depending on the number of tracers being screened, transfections can be scaled up using the same ratios. The next day, for each tracer, four 20× screening solutions in tracer dilution buffer (Promega) were prepared: two duplicates at final concentration of 20 μM and two duplicates at a final concentration of 2 μM. […] The four resulting solutions were diluted 4-fold in Opti-MEM without serum or phenol red to generate 5× solutions (5 µM and 0.5 µM tracer +/− 100 μM competing compound). To screen the library, a BioTek MultiFlo FX liquid dispenser was used to dispense 22.5 µL of tracer solution to the top 4 rows and 22.5 µL tracer + competing compound solution to the 4 bottom rows. Plates were briefly mixed on an orbital shaker and incubated for 1.5 h at room temperature. […] Plates were briefly mixed on an orbital shaker and incubated for 15 min to allow complementation.

ADRA1A = biological target: T3, ADRA1A (Homo sapiens, UniProt P35348); assay: NanoBRET screen HiBiT-ADRA1A in HEK293
T3 construct: purchased Promega (in-house HiBiT-GPCR construct library, NanoBRET)
T3 sequence (P35348 1-466): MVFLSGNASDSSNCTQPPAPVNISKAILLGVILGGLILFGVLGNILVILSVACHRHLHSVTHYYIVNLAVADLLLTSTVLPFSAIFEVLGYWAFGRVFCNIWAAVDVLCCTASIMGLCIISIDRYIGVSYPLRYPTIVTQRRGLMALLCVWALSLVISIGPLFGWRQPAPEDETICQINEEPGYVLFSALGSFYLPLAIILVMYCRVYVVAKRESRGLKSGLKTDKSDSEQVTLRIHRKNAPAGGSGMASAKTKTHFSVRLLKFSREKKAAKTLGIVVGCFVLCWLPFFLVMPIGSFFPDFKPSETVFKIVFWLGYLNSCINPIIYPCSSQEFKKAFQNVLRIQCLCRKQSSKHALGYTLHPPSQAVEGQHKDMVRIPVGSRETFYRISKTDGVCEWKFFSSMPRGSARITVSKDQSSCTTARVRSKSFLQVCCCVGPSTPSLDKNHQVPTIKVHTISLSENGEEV
Experimental: as §1, §2

HTR1F = biological target: T4, HTR1F (Homo sapiens, UniProt P30939); assay: NanoBRET screen HiBiT-HTR1F in HEK293
T4 construct: purchased Promega (in-house HiBiT-GPCR construct library, NanoBRET)
T4 sequence (P30939 1-366): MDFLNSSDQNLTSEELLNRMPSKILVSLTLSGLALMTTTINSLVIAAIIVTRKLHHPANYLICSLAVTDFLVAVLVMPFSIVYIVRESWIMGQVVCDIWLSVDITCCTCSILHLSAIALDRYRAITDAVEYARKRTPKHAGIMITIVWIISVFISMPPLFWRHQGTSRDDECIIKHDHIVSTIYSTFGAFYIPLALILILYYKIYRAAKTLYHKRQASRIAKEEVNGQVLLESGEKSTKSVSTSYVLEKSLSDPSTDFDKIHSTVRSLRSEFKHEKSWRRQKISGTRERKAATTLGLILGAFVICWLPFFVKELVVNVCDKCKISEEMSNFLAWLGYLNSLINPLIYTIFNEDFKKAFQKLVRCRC
Experimental: as §1, §2

CNR2 = biological target: T5, CNR2 (Homo sapiens, UniProt P34972); assay: NanoBRET screen HiBiT-CNR2 in HEK293
T5 construct: purchased Promega (in-house HiBiT-GPCR construct library, NanoBRET)
Experimental: as §1, §2

T5 sequence (P34972 whole entry): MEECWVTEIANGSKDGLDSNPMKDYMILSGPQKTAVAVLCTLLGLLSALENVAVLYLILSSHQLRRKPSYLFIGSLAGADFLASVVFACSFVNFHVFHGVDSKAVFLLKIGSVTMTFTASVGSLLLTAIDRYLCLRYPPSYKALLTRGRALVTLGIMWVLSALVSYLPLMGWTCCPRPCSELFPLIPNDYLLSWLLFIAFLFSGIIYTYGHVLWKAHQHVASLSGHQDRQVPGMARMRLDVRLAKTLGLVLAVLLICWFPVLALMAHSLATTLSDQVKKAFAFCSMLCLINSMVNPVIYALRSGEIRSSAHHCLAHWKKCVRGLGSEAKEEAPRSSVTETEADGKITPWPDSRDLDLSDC
T2 sequence (P21728 whole entry): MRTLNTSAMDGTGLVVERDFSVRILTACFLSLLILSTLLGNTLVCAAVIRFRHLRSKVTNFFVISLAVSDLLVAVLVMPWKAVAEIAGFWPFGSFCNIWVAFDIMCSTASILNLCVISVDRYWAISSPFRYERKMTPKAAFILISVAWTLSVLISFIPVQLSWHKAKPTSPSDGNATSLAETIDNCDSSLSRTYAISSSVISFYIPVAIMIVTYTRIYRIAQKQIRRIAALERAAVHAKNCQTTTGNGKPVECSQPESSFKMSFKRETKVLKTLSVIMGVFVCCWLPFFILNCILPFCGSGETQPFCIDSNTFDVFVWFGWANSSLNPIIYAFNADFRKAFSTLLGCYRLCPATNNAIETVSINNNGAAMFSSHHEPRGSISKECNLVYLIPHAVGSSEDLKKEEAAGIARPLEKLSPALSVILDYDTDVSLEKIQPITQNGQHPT

| SMILES | NanoBRET Fold Response (ADRA2B; ADRA2B, tracer 0.1μM) | NanoBRET Fold Response (ADRA2B; ADRA2B, tracer 1μM) | NanoBRET Fold Response (DRD1; DRD1, tracer 0.1μM) | NanoBRET Fold Response (DRD1; DRD1, tracer 1μM) | NanoBRET Fold Response (ADRA1A; ADRA1A, tracer 0.1μM) | NanoBRET Fold Response (ADRA1A; ADRA1A, tracer 1μM) | NanoBRET Fold Response (HTR1F; HTR1F, tracer 0.1μM) | NanoBRET Fold Response (HTR1F; HTR1F, tracer 1μM) | NanoBRET Fold Response (CNR2; CNR2, tracer 0.1μM) | NanoBRET Fold Response (CNR2; CNR2, tracer 1μM) | NanoBRET Fold Response (ADRA2B; 0.1μM tracer) | NanoBRET Fold Response (ADRA2B; 1μM tracer) | NanoBRET Fold Response (DRD1; 0.1μM tracer) | NanoBRET Fold Response (DRD1; 1μM tracer) | NanoBRET Fold Response (ADRA1A; 0.1μM tracer) | NanoBRET Fold Response (ADRA1A; 1μM tracer) | NanoBRET Fold Response (HTR1F; 0.1μM tracer) | NanoBRET Fold Response (HTR1F; 1μM tracer) | NanoBRET Fold Response (CNR2; 0.1μM tracer) | NanoBRET Fold Response (CNR2; 1μM tracer) |
| --- | --- | --- | --- | --- | --- | --- | --- | --- | --- | --- | --- | --- | --- | --- | --- | --- | --- | --- | --- | --- |
| CCCn1c(=O)c2[nH]c(-c3ccc(OCC(=O)NCCNC(=O)CCOCCNC(=O)c4ccc(CNC(=O)CCc5ccc6n5[B-](F)(F)[N+]5=C(c7ccc[nH]7)C=CC5=C6)cc4)cc3)nc2n(CCC)c1=O [XAC-3-NB590] | 0.91 | 0.95 | 0.90 | 1.11 | 1.10 | 0.94 | 1.07 | 1.05 | 1.04 | 1.09 |  |  |  |  |  |  |  |  |  |  |
| COc1ccc2c(n1)c(CCNC(C)=O)cn2CCNC(=O)CCc1ccc2n1[B-](F)(F)[N+]1=C(c3ccc[nH]3)C=CC1=C2 [Azamelatonin-1-NB590] |  |  |  |  |  |  |  |  |  |  | 1.18 | 0.96 | 0.92 | 0.96 | 0.96 | 0.95 | 0.79 | 0.79 | 0.98 | 1.01 |
